This data set can be described thus: Solubility measured from an isopropyl acetate slurry, by HPLC. To be noted: solid from solubility samples dried under nitrogen, characterized by PXRD and thermal microscopy.

Regarding `NC(=O)C[S@@+]([O-])C(c1ccccc1)c1ccccc1` [R-(−)-modafinil Form III, R-(−)-2-[(Diphenylmethyl)sulfinyl]acetamide], the “Form conversion during solubility procedure” value is recorded as “Form conversion was not observed”. Consider `NC(=O)C[S@@+]([O-])C(c1ccccc1)c1ccccc1` [R-(−)-modafinil Form IV, R-(−)-2-[(Diphenylmethyl)sulfinyl]acetamide], for which the “Form conversion during solubility procedure” value is recorded as “Form conversion was not observed”. Under `NC(=O)C[S@@+]([O-])C(c1ccccc1)c1ccccc1` [R-(−)-modafinil Form V, R-(−)-2-[(Diphenylmethyl)sulfinyl]acetamide] stands “Form conversion was not observed”.

These data come from US8809586B2, “Modafinil compositions” (priority 2004, dated 2014).
